Measurements published in patent US20080269343A1, “GALENIC FORMULATIONS OF ORGANIC COMPOUNDS” (priority 2004, published 2008).
Read-outs that look alike come from different tables or passages of the source.

How the values were obtained:
[1] = Single and multiple dose 300 mg pharmacokinetic study in Japanese and Caucasian healthy male subjects (Example 5); type: in vivo, human; details: for Cavg^SS / AUC(0-t) / Cmax / AUC: arithmetic mean (SD); for Tmax / AUC(0-t) / Cmax / AUC: male, human, plasma, oral, 300 mg; for Tmax: Median (minimum-maximum); for AUC(0-t): read-out: AUC0-72; for AUC: read-out: AUC0-τ
Protocol: An open label, non-randomized, single center, parallel group single and multiple dose study in healthy male subjects was carried out. Two parallel groups, one Japanese (n=19), the other Caucasian (n=19), age (±5 years) and weight matched (±25%), were enrolled in this study. Each subject participated in a 21-day screening period, a baseline period (Day −1), a 10 day treatment period (Days 1-10) and a study completion evaluation 4-7 days after the last PK sample. Each subject received a single 300 mg oral dose of aliskiren (dosage form 3) on Day 1 with 72 hour PK sampling, followed by multiple (once a day for 7 days) 300 mg oral doses of aliskiren on Days 4 through to 10. All administrations of aliskiren were given following a 10 hour fast. Subjects were domiciled in the study center from Day −1 (baseline) until the 24 hour post last-dose evaluations were completed oh Day 11.
Blood samples were collected to determine the pharmacokinetics following a single oral dose of 300 mg of aliskiren and multiple doses (once daily) of aliskiren 300 mg. Plasma concentrations of aliskiren were used to determine the pharmacokinetic parameters using non-compartmental methods, and the data are summarized in FIGS. 5 and 6, and Tables 4 and 5.

[2] = Single-dose four-period crossover pharmacokinetic study of 75, 150, 300 and 600 mg aliskiren (dosage form 3) in healthy volunteers (Example 3); type: in vivo; details: human, plasma; for Cmax / AUC(0-t) / AUC(0-inf): arithmetic mean (SD); for AUC(0-t): read-out: AUC0-96; for Tmax: median, dosage form 3, healthy subjects n = 30, fasted
Protocol: An open-label, single-dose, four-period, four-treatment, randomized crossover study with a 7-day washout between each period to compare the plasma concentrations of 75, 150, 300 and 600 mg of aliskiren (dosage form 3) in healthy volunteers was carried out. A total of 32 healthy subjects enrolled and 30 completed all study procedures and treatments. Subjects were screened during a 21-Day period and, if eligible, proceeded to a baseline visit prior to each treatment (four baseline evaluations in total). There was an end of study evaluation prior to discharge from the study site. Subjects were randomized into 4 dosing sequence groups with 8 subjects per sequence. The subjects were admitted to the study center at least 12 hours prior to the initial dosing in each period for baseline evaluations, and were confined to the clinic for at least 48 h post-dose in each period. Following an inter-dose interval of at least 7 days, each subject returned to the study site to receive the alternate treatment as per their randomization schedule. All subjects received each of the 75, 150, 300 and 600 mg treatments once during the study according to a randomization schedule. Plasma samples for determination of aliskiren were obtained over 96 hour period after the dose in each treatment segment. For all treatment periods, subjects fasted for a minimum of 10 hours pre-dose to 4 hours post-dose. Subjects were considered to have completed the study when all safety and pharmacokinetic evaluations had been completed.
Blood samples were collected to determine the pharmacokinetics following a single oral dose of 75, 150, 300 or 600 mg of aliskiren. Plasma concentrations of aliskiren were used to determine the pharmacokinetic parameters using non-compartmental methods, and the data are summarized in FIGS. 1, 2, and 3, and Table 1.

[3] = steady state, 300 mg once a day, Caucasian subjects
[4] = steady state, 300 mg once a day, Japanese subjects
[5] = single oral dose 75 mg, healthy subjects n = 30
[6] = single oral dose 150 mg, healthy subjects n = 30
[7] = single oral dose 300 mg, healthy subjects n = 30
[8] = single oral dose 600 mg, healthy subjects n = 30

Cavg^SS [1, 3]: 89 (33) ng/mL
Cavg^SS [1, 4]: 105 (49) ng/mL
Tmax ([1]; single dose 300 mg, Caucasian subjects n=19, fasted, read-out: Tmax): 2 h
Tmax ([1]; single dose 300 mg, Japanese subjects n=19, fasted, read-out: Tmax): 2 h
Tmax ([1]; steady state, 300 mg once a day, Caucasian subjects, read-out: Tmax^SS): 2 h
Tmax ([1]; steady state, 300 mg once a day, Japanese subjects, read-out: Tmax^SS): 4 h
AUC(0-t) ([1]; single dose 300 mg, Caucasian subjects n=19): 1120 ng·h/mL
Cmax ([1]; single dose 300 mg, Caucasian subjects n=19, read-out: Cmax): 186 ng/mL
AUC(0-t) ([1]; single dose 300 mg, Japanese subjects n=19): 1390 ng·h/mL
Cmax ([1]; single dose 300 mg, Japanese subjects n=19, read-out: Cmax): 215 ng/mL
AUC [1, 3]: 2140 ng·h/mL
Cmax ([1]; steady state, 300 mg once a day, Caucasian subjects, read-out: Cmax^SS): 321 ng/mL
AUC [1, 4]: 2520 ng·h/mL
Cmax ([1]; steady state, 300 mg once a day, Japanese subjects, read-out: Cmax^SS): 403 ng/mL
Cmax [2, 5]: 26 ng/mL
AUC(0-t) [2, 5]: 266 ng·h/mL
AUC(0-inf) ([2]; single oral dose 75 mg, healthy subjects, n = 23): 356 ng·h/mL
Cmax [2, 6]: 72 ng/mL
AUC(0-t) [2, 6]: 530 ng·h/mL
AUC(0-inf) ([2]; single oral dose 150 mg, healthy subjects, n = 29): 627 ng·h/mL
AUC(0-inf) [2, 7]: 1620 ng·h/mL
Cmax [2, 7]: 202 ng/mL
AUC(0-t) [2, 7]: 1480 ng·h/mL
AUC(0-inf) [2, 8]: 3520 ng·h/mL
Cmax [2, 8]: 420 ng/mL
AUC(0-t) [2, 8]: 3240 ng·h/mL
Tmax ([2]; single oral dose 75 mg): 1 h
Tmax ([2]; single oral dose 150 mg): 2.5 h
Tmax ([2]; single oral dose 300 mg): 3 h
Tmax ([2]; single oral dose 600 mg): 2 h
Compound: COCCCOc1cc(C[C@@H](C[C@H](N)[C@@H](O)C[C@H](C(=O)NCC(C)(C)C(N)=O)C(C)C)C(C)C)ccc1OC [aliskiren, 2(S),4(S),5(S),7(S)—N-(3-amino-2,2-dimethyl-3-oxopropyl)-2,7-di(1-methylethyl)-4-hydroxy-5-amino-8-[4-methoxy-3-(3-methoxy-propoxy)phenyl]-octanamide]
